Results as given in US12180165B2, “Human TLR8-selective agonists” (University of Kansas, priority 2015, dated 2024).
Structures can show the parent of a compound that is named as a salt. Blank lines part the entries; values can stand above or below the compound they belong to.

Tests used:
[1] = tested on: TLR-2/-3/-4/-5/-7/-9 and NOD-1/NOD-2; experiment: TLR-2/-3/-4/-5/-7/-9 and NOD-1/NOD-2 counter-screens (reporter gene assays); assay type: cell-based, human
Experimental: (§1) HEK293 cells stably co-transfected with the appropriate hTLR (or NOD) and secreted alkaline phosphatase (sAP) were maintained in HEK-BLUE™ Selection medium. Stable expression of secreted alkaline phosphatase (sAP) under control of NF-κB/AP-1 promoters is inducible by appropriate TLR/NOD agonists, and extracellular sAP in the supernatant is proportional to NF-κB induction. Reporter cells were incubated at a density of ˜10^5 cells/ml in a volume of 80 μl/well, in 384-well, flat-bottomed cell culture-treated microtiter plates in the presence of graded concentrations of stimuli. sAP was assayed spectrophotometrically using an alkaline phosphatase-specific chromogen (present in HEK-detection medium as supplied by InvivoGen) at 620 nm.

[2] = target: T1, human TLR8 (Homo sapiens, UniProt Q9NR97); experiment: Human TLR8-specific reporter gene assay (NF-κB induction, sAP readout in HEK293 cells); assay type: cell-based; conditions: EC50 in human TLR8-specific reporter gene assay
T1 construct: expressed in transfected cells; host or cells: HEK293
T1 sequence (Q9NR97 27-1041): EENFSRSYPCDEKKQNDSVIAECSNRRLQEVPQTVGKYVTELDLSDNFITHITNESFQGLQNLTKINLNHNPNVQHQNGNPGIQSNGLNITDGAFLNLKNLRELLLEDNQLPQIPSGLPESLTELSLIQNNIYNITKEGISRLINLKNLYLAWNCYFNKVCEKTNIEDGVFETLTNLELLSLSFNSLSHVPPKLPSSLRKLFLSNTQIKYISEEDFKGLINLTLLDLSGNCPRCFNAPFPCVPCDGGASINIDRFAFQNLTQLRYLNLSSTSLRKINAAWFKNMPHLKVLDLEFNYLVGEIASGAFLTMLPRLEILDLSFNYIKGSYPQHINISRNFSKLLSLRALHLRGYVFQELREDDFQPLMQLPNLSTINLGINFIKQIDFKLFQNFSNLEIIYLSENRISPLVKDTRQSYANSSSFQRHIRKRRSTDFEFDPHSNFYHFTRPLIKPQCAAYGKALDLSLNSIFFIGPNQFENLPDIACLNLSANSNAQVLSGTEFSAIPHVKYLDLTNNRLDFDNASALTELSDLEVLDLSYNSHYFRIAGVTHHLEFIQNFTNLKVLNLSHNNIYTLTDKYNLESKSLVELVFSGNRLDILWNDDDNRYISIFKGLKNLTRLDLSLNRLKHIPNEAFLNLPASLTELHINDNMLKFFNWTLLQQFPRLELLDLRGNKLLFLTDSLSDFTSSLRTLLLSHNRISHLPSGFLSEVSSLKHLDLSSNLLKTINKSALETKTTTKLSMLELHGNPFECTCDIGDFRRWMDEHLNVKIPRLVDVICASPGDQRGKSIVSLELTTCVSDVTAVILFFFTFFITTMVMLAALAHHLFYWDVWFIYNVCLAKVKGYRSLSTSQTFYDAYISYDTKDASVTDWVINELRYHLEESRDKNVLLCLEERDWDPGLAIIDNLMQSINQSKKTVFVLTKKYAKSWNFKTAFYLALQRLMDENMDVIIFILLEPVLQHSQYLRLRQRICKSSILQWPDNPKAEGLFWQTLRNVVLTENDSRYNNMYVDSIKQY
Experimental: as §1

[3] = tested on: human PBMCs; experiment: Cytokine/chemokine induction in human peripheral blood mononuclear cells (multiplexed bead array); assay type: cell-based; conditions: human PBMCs as well as whole human blood, FIG. 3
Text: Immunoassays for cytokines.

[4] = tested on: CD14+ monocytes; experiment: Eight-color flow cytometry of activation markers in human whole blood; assay type: cell-based; conditions: FIG. 5
Experimental: Eight-color Flow-cytometric immunostimulation experiments: Cell surface marker upregulation was determined by flow cytometry using protocols as described previously (Hood, J. D. et al. Hum. Vaccin. 2010, 6, 332-335), and modified for rapid-throughput. […] Serial dilutions of selected compounds were performed using a Bio-Tek Precision 2000 XS liquid handler in sterile 96-well polypropylene plates, to which were added 100 mL aliquots of anticoagulated whole human blood. The plates were incubated at 37° C. for 16 h. Negative (endotoxin free water) controls were included in each experiment. The following fluorochrome-conjugated antibodies were used: CD3-PE, CD19-FITC, CD56-APC (eBioscience, San Diego, CA), CD14-V500, CD28 PE-Cy7, CD40 V450, CD80 APC-H7, CD86 PerCP-Cy5.5 (Becton-Dickinson Biosciences, San Jose, CA). Following incubation, 2.5 μg of each antibody was added to wells with a liquid handler, and incubated at 4° C. in the dark for 60 min. […] CD28, CD40, CD80, and CD86 activation in the major leukocyte populations, viz., natural killer lymphocytes (NK cells: CD3-CD56+), cytokine-induced killer phenotype (CIK cells: CD3+CD56+), B lymphocytes (CD19+CD3-), T lymphocytes (CD3+CD56-), monocytes (CD14+), polymorphonuclear cells (CD14-) were quantified using FlowJo v 7.0 software (Treestar, Ashland, OR).

[5] = target: T1, human TLR8; conditions: reference compounds, literature values (Kokatla et al.); read-out: TLR8 EC50 (previously reported); cited from earlier work

Compound: CCCCCc1c(N)nc2ccccc2c1Cc1cccc(CN)c1 [Compound 9a, 4-(3-(Aminomethyl)benzyl)-3-pentylquinolin-2-amine dihydrochloride]
specificity for TLR8 [1]: retained specificity for TLR8

Compound: CCCCCc1c(N)nc2ccccc2c1Cc1ccc(CN)cc1 [Compound 9b, 4-(4-(Aminomethyl)benzyl)-3-pentylquinolin-2-amine dihydrochloride]
specificity for TLR8 [1]: retained specificity for TLR8

Compound: CCCCCc1cc2c(Cc3cccc(C(N)=O)c3)cccc2nc1N [Compound 18d, 3-((2-Amino-3-pentylquinolin-5-yl)methyl)benzamide]
TLR8 Agonistic Activity (nM) [2]: Inactive

Compound: CCCCCc1cc2c(CCCCCN)cccc2nc1N [Compound 34b, 5-(5-Aminopentyl)-3-pentylquinolin-2-amine]
induction of proinflammatory cytokines including TNF-α, IL-12 and IFN-γ [3]: induction of a specific set of proinflammatory cytokines was observed | CD40 upregulation [4]: upregulate CD40 | CD80 expression [4]: strongly induces CD80 expression

Compound: C2-butyl furo[2,3-c]quinoline
EC50 [5]: 1600 nM

The next lines start with the values.

TLR8 Agonistic Activity (nM) [2]: Inactive
Compound: CCCCCc1cc2c(Cc3ccccc3)cccc2nc1N [Compound 17d, 5-Benzyl-3-pentylquinolin-2-amine]

TLR8 Agonistic Activity (nM) [2]: Inactive
Compound: CCCCCc1cc2c(-c3cccc(CN)c3)cccc2nc1N [Compound 20a, 5-(3-(Aminomethyl)phenyl)-3-pentylquinolin-2-amine]

TLR8 Agonistic Activity (nM) [2]: Inactive
Compound: CCCCCc1cc2cccc(CCCCN)c2nc1N [Compound 37, 8-(4-Aminobutyl)-3-pentylquinolin-2-amine]
